For one experiment, the target named is Mu-type opioid receptor (Cavia porcellus, UniProt P97266). The experiment is described as follows: Displacement of [3H]-DAMGO from mu opioid receptor in guinea pig brain membrane after 120 mins by scintillation counting. Type of experiment: cell membranes. On the technique in general: Loss of bound radioactivity is the signal in a displacement assay; it reports binding, not function.

For experiment [1], the target named is Kappa-type opioid receptor (Cavia porcellus, UniProt P41144). The experiment is described as follows: Displacement of [3H]-U-69593 from kappa opioid receptor in guinea pig brain membrane after 120 mins by scintillation counting. Type of experiment: cell membranes.
In experiment [2] the target is T1, Kappa-type opioid receptor (Homo sapiens, UniProt P41145). The experiment in a line: Binding affinity to kappa opioid receptor (unknown origin).
Experiment [3] addresses T1, Kappa-type opioid receptor. The experiment is described as follows: Intrinsic activity at kappa opioid receptor in human HEK293 cells at 100 nM after 30 mins by [35S]GTPgammaS binding assay relative to U-69593. Type of experiment: functional, cell-based.
In experiment [4] the target is Delta-type opioid receptor (Rattus norvegicus, UniProt P33533). The experiment in a line: Displacement of [3H]-DPDPE from delta opioid receptor in rat brain membrane after 120 mins by scintillation counting. Format: cell membranes.

Among the data in ChEMBL document CHEMBL3632621, “Conformationally restricted κ-opioid receptor agonists: Synthesis and pharmacological evaluation of diastereoisomeric and enantiomeric decahydroquinoxalines” (Bioorg Med Chem Lett, 2015) are Ki and Activity values, retold here.

Mu-type opioid receptor, sequence (P97266 whole entry): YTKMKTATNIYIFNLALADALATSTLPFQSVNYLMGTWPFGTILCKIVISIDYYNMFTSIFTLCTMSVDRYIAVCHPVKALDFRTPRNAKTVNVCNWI
T1 sequence (P41145 whole entry): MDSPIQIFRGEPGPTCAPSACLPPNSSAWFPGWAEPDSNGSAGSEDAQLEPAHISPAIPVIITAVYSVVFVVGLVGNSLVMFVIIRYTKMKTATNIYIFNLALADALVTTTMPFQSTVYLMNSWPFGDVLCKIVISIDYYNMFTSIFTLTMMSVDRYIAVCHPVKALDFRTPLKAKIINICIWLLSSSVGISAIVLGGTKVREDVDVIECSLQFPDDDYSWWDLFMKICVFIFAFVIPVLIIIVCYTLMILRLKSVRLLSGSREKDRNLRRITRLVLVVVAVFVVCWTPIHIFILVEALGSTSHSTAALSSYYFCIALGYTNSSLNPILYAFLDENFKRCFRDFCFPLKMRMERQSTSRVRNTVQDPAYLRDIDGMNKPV
Kappa-type opioid receptor (Cavia porcellus, UniProt P41144), sequence (P41144 whole entry): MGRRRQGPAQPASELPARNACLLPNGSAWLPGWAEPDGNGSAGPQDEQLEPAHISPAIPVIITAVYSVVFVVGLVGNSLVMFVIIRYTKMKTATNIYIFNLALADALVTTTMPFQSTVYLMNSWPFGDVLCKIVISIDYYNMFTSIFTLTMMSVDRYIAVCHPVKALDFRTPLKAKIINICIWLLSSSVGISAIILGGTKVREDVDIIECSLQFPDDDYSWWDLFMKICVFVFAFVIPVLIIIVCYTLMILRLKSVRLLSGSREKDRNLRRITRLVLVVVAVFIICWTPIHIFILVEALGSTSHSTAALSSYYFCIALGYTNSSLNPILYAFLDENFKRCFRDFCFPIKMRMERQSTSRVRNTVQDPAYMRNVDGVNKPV
Delta-type opioid receptor, sequence (P33533 whole entry): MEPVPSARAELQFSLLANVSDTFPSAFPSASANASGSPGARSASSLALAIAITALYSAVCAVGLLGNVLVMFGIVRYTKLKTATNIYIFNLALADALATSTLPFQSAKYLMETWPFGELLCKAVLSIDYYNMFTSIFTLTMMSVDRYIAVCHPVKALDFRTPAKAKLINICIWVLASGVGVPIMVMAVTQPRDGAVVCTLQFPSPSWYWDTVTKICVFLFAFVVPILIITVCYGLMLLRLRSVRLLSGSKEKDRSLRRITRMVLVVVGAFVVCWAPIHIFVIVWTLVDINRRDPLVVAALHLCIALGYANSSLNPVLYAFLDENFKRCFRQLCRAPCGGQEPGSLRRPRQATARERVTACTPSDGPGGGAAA

Regarding `COC(=O)N1CCN(C(=O)Cc2ccc(Cl)c(Cl)c2)[C@H]2[C@H](N3CCCC3)CCC[C@H]21`, at Mu-type opioid receptor, the inhibition constant (Ki) turned out to be 544 nM. The compound `COC(=O)N1CCN(C(=O)Cc2ccc(Cl)c(Cl)c2)[C@@H]2[C@@H](N3CCCC3)CCC[C@@H]21` displayed a Ki on Mu-type opioid receptor of 43 nM. `COC(=O)N1CCN(C(=O)Cc2ccc(Cl)c(Cl)c2)[C@H](CN2CCCC2)C1`: the results for the Ki in experiment [1] and in experiment [2] were 0.36 nM and 360 nM, respectively.

Consider `COC(=O)N1CCN(C(=O)Cc2ccc(Cl)c(Cl)c2)[C@H]2[C@H](N3CCCC3)CCC[C@H]21` (racemic), for which the affinity at Mu-type opioid receptor, expressed as Ki, was 113 nM. The compound `COC(=O)N1CCN(C(=O)Cc2ccc(Cl)c(Cl)c2)[C@H]2[C@H](N3CCCC3)CCC[C@@H]21` (stereo in doubt) had a Ki at Mu-type opioid receptor of 309 nM.

The compound `COC(=O)N1CCN(C(=O)Cc2ccc(Cl)c(Cl)c2)[C@H]2[C@@H](N3CCCC3)CCC[C@@H]21` (stereo in doubt) yielded an inhibition constant Ki on Mu-type opioid receptor of 343 nM. Compound `COC(=O)N1CCN(C(=O)Cc2ccc(Cl)c(Cl)c2)[C@@H]2[C@H](N3CCCC3)CCC[C@H]21` (stereo in doubt) came in with an inhibition constant (Ki) on Mu-type opioid receptor of 118 nM.

Regarding `CN(C(=O)/C=C/c1ccoc1)[C@@H]1CC[C@@]2(O)[C@H]3Cc4ccc(O)c5c4[C@@]2(CCN3CC2CC2)[C@H]1O5` [NALFURAFINE], the Activity in experiment [3] is 100%. Besides, the Ki in experiment [4] was 0.37 nM.

One may read the Ki as a measure of affinity in units of concentration, obtained from inhibition or displacement.
